US20040186273A1 (V.I. Technologies, Inc., priority 2000, published 2004)

Tests used:
[1] = target: prion from scrapie infected hamster brain (PrPsc) (Mesocricetus auratus, UniProt P04273)
[2] = target: PrPc from normal brain homogenate (Mesocricetus auratus, UniProt P04273)
[3] = target: prion from infected hamster brain spiked into plasma (Mesocricetus auratus, UniProt P04273)
prion from infected hamster brain spiked into plasma, sequence (P04273 23-231 limits assumed): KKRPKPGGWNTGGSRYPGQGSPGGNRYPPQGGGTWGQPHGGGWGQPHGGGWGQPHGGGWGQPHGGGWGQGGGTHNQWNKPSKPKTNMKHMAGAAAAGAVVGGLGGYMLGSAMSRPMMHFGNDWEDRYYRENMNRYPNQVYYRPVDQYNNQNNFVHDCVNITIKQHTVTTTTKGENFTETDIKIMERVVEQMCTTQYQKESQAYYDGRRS

PrPc from normal brain homogenate, sequence (P04273 23-231 limits assumed): as above
prion from scrapie infected hamster brain (PrPsc), sequence (P04273 23-231 limits assumed): as above

Substance | binding of prion to resin (prion signal in flow through) [1] | PrPc bound to resin (chemiluminescence signal, +3F4 vs -3F4) [2] | further results
GFFFWW [Peptide 89] | bound all prion | – | –
HHHPQT [Peptide 55] | let prion flow through | – | prion binding, dependence on copper [1]: appears to bind prion only in the absence of copper
IFFWIK [Peptide 112] | – | strongest binders | –
IQIWIF [Peptide 110] | bound to the column | – | binding of prion to resin (prion signal in flow through) [3]: bound all prion
LLIWIP [Peptide 84] | – | not stable enough to resist the washing protocol | –
LRVIIS [Peptide 96] | – | much larger signal than the controls | –
RWIISL [Peptide 113] | – | strongest binders | –
RYHVYF [Peptide 71] | bound all prion | – | –
VFEYIK [Peptide 115] | – | strongest binders | –
WLVWIA [Peptide 116] | – | strongest binders | –
WLYWIP [Peptide 85] | – | not stable enough to resist the washing protocol | –
YVFNWY [Peptide 87] | bound all prion | – | –
acetyl (dF)LLHPI [Peptide 75, reference compound] | – | – | binding of prion to resin (prion signal in flow through) [3]: did not bind prion strongly enough to retain all detectable protein
acetyl (dF)LLHPI [Peptide 76] | failed to bind all prion | – | –
acetylated (dR)YHVYF [Peptide 83, reference compound] | – | – | binding of prion to resin (prion signal in flow through) [3]: bound all prion
